5 molecules from PMC9037111, “Structure-based design, synthesis, and biological evaluation of novel piperine–resveratrol hybrids as antiproliferative agents targeting SIRT-2” (RSC Advances, 2021) can be followed below.

The term IC50 denotes the point on the concentration scale where inhibition reaches its midpoint. Lower therefore signals inhibition by little substance.

The target of experiment [1] is T1, SIRT2 (Homo sapiens, UniProt Q8IXJ6).
T1 sequence (Q8IXJ6 2-389): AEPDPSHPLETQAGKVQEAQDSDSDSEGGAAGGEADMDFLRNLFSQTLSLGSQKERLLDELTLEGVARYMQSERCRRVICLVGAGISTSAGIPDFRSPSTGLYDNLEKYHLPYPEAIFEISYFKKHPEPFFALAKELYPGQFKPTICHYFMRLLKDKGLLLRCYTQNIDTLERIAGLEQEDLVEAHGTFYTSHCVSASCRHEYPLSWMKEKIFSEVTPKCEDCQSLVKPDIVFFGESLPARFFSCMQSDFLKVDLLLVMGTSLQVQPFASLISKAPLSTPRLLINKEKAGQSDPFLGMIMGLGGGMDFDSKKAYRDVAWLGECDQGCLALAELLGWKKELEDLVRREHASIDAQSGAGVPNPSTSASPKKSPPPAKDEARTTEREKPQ
Description: biochemical. Also noted: Sirtuin-TK assay, percent inhibition of human SIRT1 or SIRT2 at 5 and 50 uM. As for the experimental part:
(§1) Sirtuin-TK assay was performed to estimate the Sirtuins inhibitory potential of 5a–h (Tables 2 and 3). The results of this test strongly complemented the findings of cancer cell-based assessments. […] Of the 8 compounds evaluated, 3 analogs (5b, 5e and 5h) were more likely to inhibit Sirt2 (>70% inhibition) than Sirt1 (<50% inhibition) at 50 μM. The other compounds were poor inhibitors of both enzymes. […] 4.2.2. Sirtuin inhibitory assay

The next experiment concerns the target T2, SIRT1 (Homo sapiens, UniProt Q96EB6).
T2 sequence (Q96EB6 2-747): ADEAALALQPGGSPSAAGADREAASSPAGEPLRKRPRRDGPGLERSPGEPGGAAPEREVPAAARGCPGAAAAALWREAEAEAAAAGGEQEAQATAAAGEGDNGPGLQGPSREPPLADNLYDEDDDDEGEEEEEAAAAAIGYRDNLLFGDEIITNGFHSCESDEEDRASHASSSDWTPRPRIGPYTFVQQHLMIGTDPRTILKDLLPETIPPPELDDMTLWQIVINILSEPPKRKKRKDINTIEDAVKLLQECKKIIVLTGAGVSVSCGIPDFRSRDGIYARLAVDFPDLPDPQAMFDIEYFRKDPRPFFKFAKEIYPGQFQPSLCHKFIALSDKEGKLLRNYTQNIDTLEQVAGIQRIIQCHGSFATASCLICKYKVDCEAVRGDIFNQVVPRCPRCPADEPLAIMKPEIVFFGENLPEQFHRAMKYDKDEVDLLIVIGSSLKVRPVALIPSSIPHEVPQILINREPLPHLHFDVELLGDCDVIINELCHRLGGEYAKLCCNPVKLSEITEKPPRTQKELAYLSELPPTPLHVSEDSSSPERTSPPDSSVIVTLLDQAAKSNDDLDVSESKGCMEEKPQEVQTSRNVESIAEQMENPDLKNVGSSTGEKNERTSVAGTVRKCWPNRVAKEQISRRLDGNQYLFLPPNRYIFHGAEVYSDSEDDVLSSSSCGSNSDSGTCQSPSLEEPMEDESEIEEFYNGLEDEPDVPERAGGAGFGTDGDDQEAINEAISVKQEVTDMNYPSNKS
The experiment in a line: biochemical. Also noted: Sirtuin-TK assay, percent inhibition of human SIRT1 or SIRT2 at 5 and 50 uM. The procedure:
as §1

In a further experiment the test system is OVCAR-4. Description: cells. Also noted: species or system NCI-60 human tumour cell lines; NCI-60 one-dose screen at 10 uM, percent growth inhibition versus untreated control cells. The settings on record: Homo sapiens, OVCAR-4, growth inhibition, one dose. As for the experimental part: (§2) The antiproliferative activity of the target compounds 5a–h was screened against a panel of 60 cancer cell lines according to NCI-guidelines at concentration of 10 μM. The results for each compound (Table 1) were recorded as the percent of growth inhibition of treated cells compared to untreated control cells. […] In addition, 5b recorded significant activity against leukemia cancer cell lines K-562 and MOLT-4, Non-small cell lung cancer cell lines NCI-H322M and NCI-H460, Colon cancer cell lines COLO 205, HCT-15 and HCT-116, CNS cancer cell lines SF-295 and SF-539, Melanoma cancer cell lines LOX IMVI and UACC-62, Ovarian cancer cell lines NCI/ADR-RES, OVCAR-3, and OVCAR-4, Renal cancer cell lines CAKI-1, ACHN, and UO-31, and Breast cancer MCF7 cell line with growth inhibition percentage between 80 to 95. […] The methodology of the NCI anticancer screening has been described in detail elsewhere (https://dtp.cancer.gov/).[52]

Another experiment has as its system MOLT-4. Description: cells. Also noted: species or system NCI-60 human tumour cell lines; NCI-60 one-dose screen at 10 uM, percent growth inhibition versus untreated control cells. The settings on record: Homo sapiens, MOLT-4, growth inhibition, one dose. As for the experimental part: as §2
The test system of the next experiment is DU-145. The experiment in a line: cells. Also noted: species or system NCI-60 human tumour cell lines; NCI-60 one-dose screen at 10 uM, percent growth inhibition versus untreated control cells. The settings on record: Homo sapiens, DU-145, growth inhibition, one dose. The procedure:
as §2

Another experiment deals with SNB-75. Description: cells. Also noted: species or system NCI-60 human tumour cell lines; NCI-60 one-dose screen at 10 uM, percent growth inhibition versus untreated control cells. The settings on record: Homo sapiens, SNB-75, growth inhibition, one dose. As for the experimental part:
as §2

For the next experiment, the system named is SR. Description: cells. Also noted: species or system NCI-60 human tumour cell lines; NCI-60 one-dose screen at 10 uM, percent growth inhibition versus untreated control cells. Conditions: Homo sapiens, SR, growth inhibition, one dose. As for the experimental part:
as §2

For another experiment, the system named is UO-31. The experiment in a line: cells. Also noted: species or system NCI-60 human tumour cell lines; NCI-60 one-dose screen at 10 uM, percent growth inhibition versus untreated control cells. Conditions: Homo sapiens, UO-31, growth inhibition, one dose. The procedure: as §2
The subject of a further experiment is SF-268. Description: cells. Conditions: Homo sapiens, SF-268, growth inhibition, one dose. Also noted: species or system NCI-60 human tumour cell lines; NCI-60 one-dose screen at 10 uM, percent growth inhibition versus untreated control cells. The procedure: as §2
In experiment [2] the target is T1, SIRT2. The experiment in a line: sirtuin deacetylase inhibition assay, IC50. It is filed as biochemical.
The mark [3] stands for this setting: read-out: Growth% inhibition / 5h.
[4] abbreviates: read-out: Growth% inhibition / 5e.
The mark [5] stands for this setting: read-out: Growth% inhibition / 5b.
Where [6] appears, read: read-out: Growth% inhibition / 5a.
The mark [7] stands for this setting: read-out: Growth% inhibition / 5d.

Read-outs that look alike come from different tables or passages of the source.

With `C/C(=N\NC(=O)/C=C/C=C/c1ccc2c(c1)OCO2)c1ccc(Br)cc1` [5h, (2E,4E)-5-(Benzo[d][1,3]dioxol-5-yl)-N′-((E)-1-(4-bromophenyl)ethylidene)penta-2,4-dienehydrazide], the figures for the inhibition at 5 µM against SIRT2 [1] and against SIRT1 were 22 ± 5% and 16 ± 5%, respectively. Further, the values for the inhibition at 50 µM on SIRT2 [1] and against SIRT1 were 75 ± 3% and 44 ± 3%, respectively. The inhibition at 10 µM with OVCAR-4 (setting [3]) stood at 65.2%; with MOLT-4 (setting [3]), 25.3%; in the experiment with DU-145 (setting [3]), 44%; in the experiment with SNB-75 (setting [3]) it was 68.1%; in the experiment on SR (setting [3]), 93.3%; in the experiment on UO-31 (setting [3]), 44.9%. For the same molecule, in the experiment on SF-268 (setting [3]), the inhibition at 10 µM came to 32.5%. In addition, inhibition against SIRT2 [2] was half-maximal at 26 ± 3 µM (IC50).

In the case of `CCN(CC)c1ccc(/C=N/NC(=O)/C=C/C=C/c2ccc3c(c2)OCO3)c(O)c1` [5e, (2E,4E)-5-(Benzo[d][1,3]dioxol-5-yl)-N′-((E)-4-(diethylamino)-2-hydroxybenzylidene)penta-2,4-dienehydrazide], the figures for the inhibition at 5 µM on SIRT2 [1] and on SIRT1 were 24 ± 3% and 20 ± 5%, respectively. Moreover, the inhibition at 50 µM stood at 74 ± 2% at SIRT2 [1] and 44 ± 2% at SIRT1. Further, the inhibition at 10 µM was 84.7% in the experiment with OVCAR-4 (setting [4]); 81.7% in the experiment with MOLT-4 (setting [4]); 46.8% with DU-145 (setting [4]); 41.2% with SNB-75 (setting [4]); 82.4% in the experiment on SR (setting [4]); 75% in the experiment on UO-31 (setting [4]). In addition, the inhibition at 10 µM in the experiment on SF-268 (setting [4]) was 66.3%. For the same molecule, the IC50 at SIRT2 [2] worked out at 23 ± 2 µM.

`O=C(/C=C/C=C/c1ccc2c(c1)OCO2)N/N=C/c1ccc(O)cc1O` [5b, (2E,4E)-5-(Benzo[d][1,3]dioxol-5-yl)-N′-((E)-2,4-dihydroxybenzylidene)penta-2,4-dienehydrazide]: the inhibition at 5 µM on SIRT2 [1] stood at 26 ± 3%; on SIRT1, 18 ± 3%. This molecule came in with an inhibition at 50 µM on SIRT2 [1] of 78 ± 3%. The inhibition at 10 µM in the experiment with OVCAR-4 (setting [5]) worked out at 90.8%; in the experiment on MOLT-4 (setting [5]), 86.7%; in the experiment on DU-145 (setting [5]), 50%; in the experiment with SNB-75 (setting [5]) it was 36%; with SR (setting [5]), 78.7%; with UO-31 (setting [5]) it was 88.6%. Besides, the inhibition at 10 µM with SF-268 (setting [5]) turned out to be 75.6%. The same molecule gave an IC50 on SIRT2 [2] of 21 ± 3 µM.

With `O=C(/C=C/C=C/c1ccc2c(c1)OCO2)NN=Cc1ccc(O)cc1` [5a, (2E,4E)-5-(Benzo[d][1,3]dioxol-5-yl)-N′-((E,Z)-4-hydroxybenzylidene)penta-2,4-dienehydrazide], the inhibition at 5 µM against SIRT2 [1] is 19 ± 3%; against SIRT1 it was 13 ± 3%. On SIRT1, the inhibition at 50 µM came out at 42 ± 3%. Moreover, the inhibition at 10 µM worked out at 12.7% in the experiment with OVCAR-4 (setting [6]); 23.5% with MOLT-4 (setting [6]); 27% in the experiment on SNB-75 (setting [6]); 64% in the experiment on SR (setting [6]); 39.2% in the experiment on UO-31 (setting [6]); 17.1% in the experiment on SF-268 (setting [6]).

With `CN(C)c1ccc(C=NNC(=O)/C=C/C=C/c2ccc3c(c2)OCO3)cc1` (mixture of isomers) [5d, (2E,4E)-5-(Benzo[d][1,3]dioxol-5-yl)-N′-((E/Z)-4-(dimethylamino)-benzylidene)penta-2,4-dienehydrazide], the inhibition at 5 µM on SIRT2 [1] was determined as 18 ± 2%; against SIRT1 it was 11 ± 2%. The inhibition at 10 µM stood at 25.7% in the experiment with SNB-75 (setting [7]), 62% in the experiment on SR (setting [7]) and 23.7% in the experiment on UO-31 (setting [7]).
